This is an account of results in patent publication US9241954B2, “Lipopolysaccharide of ochrobactrum intermedium and their use as immunostimulant of mammalians” (LABORATORIOS OVEJERO, S.A., priority 2009, dated 2016).

Data set [1] has as its system CD8 and CD4 T-cells (spleen cells).
The subject of data set [2] is severe sepsis patients. As to conditions: cited from earlier work.

As for “Lipopolysaccharide from Ochrobactrum intermedium strain LMG3306 [IM]”, the “toxicity for CD8 and CD4 T-cells / spleen cells” value in data set [1] is reported as “no toxic at all”.

As for `CCOC(=O)C1=CCCC[C@H]1S(=O)(=O)Nc1ccc(F)cc1Cl` [TAK-242], the proinflammatory cytokine levels entry in data set [2] (human, in vivo) is “decrease proinflammatory cytokine levels”. Moreover, in data set [2] (severe sepsis patients (TAK-242: subgroup with high IL-6 levels)), the mortality result was “decrease mortality”.
